What was measured:
[1] = pH-dependent hydrolysis of model amides monitored by 1H-NMR; assay type: physicochemical
Description: Model compound synthesis and hydrolytic kinetics measurement (Scheme 4—FIG. 4): Briefly, N,N-diethylamine (415 μL, 4 mmol) and 1,2-cis-cyclohexanedicarboxylic anhydride (617 mg, 4 mmol) were dissolved in 10 mL dichloride methane. The reaction was kept at room temperature for 2 h with stirring. The solvent was then removed by rotary evaporation to obtain the raw product. The raw product was purified by recrystallizing from benzene to get 2-[(diethylamino)carbonyl]cyclohexanecarboxylic acid. 1H NMR (400 MHz, CDCl3): δ (ppm): 3.60-3.22 (m), 2.77 (m), 2.51-2.45 (m), 1.87-1.66 (m), 1.58-1.46 (m), 1.49-1.39 (m), 1.28 (q), 1.17 (t). Similarly, 2-[(isopropylamino)carbonyl]cyclohexanecarboxylic acid was synthesized. 1H NMR (400 MHz, CDCl3): δ (ppm): 3.83 (q), 2.73 (q), 2.64 (q), 1.87 (m), 1.79 (m), 1.64 (m), 1.45 (m), 1.33 (m), 1.01 (d).
The hydrolysis of the model compounds was monitored by 1H-NMR. Briefly, 2-[(isopropylamino)carbonyl]cyclohexanecarboxylic acid (10 mg) was dissolved in 2 mL D2O. Sodium carbonate was used to adjust the solution pH to 5.0, 6.0 or 7.4 at 37° C. At predesigned time intervals, 1HNMR spectra of the solution were measured on a Bruker Avance DRX-400 spectrometer. The hydrolysis was monitored by measuring the integrations of the peaks at 3.77-3.9 ppm (CH in the amide of propan-2-amine) and the 3.3-3.5 ppm (CH in the propan-2-amine).
The hydrolysis of model amides of primary and secondary amines made from cis-1,2-cyclohexanedicarboxylic anhydride was tested at different pH values.

nuclear DNA = settings: cited from earlier work

Row | hydrolysis of the amide ([1]; pH 5, 37° C.) | hydrolysis of the amide ([1]; pH 6, 37° C.) | hydrolysis of the amide ([1]; pH 7.4) | extent of amide hydrolysis ([1]; pH 7.4, after 60 h) | Structure (SMILES) | molecules that enter the cell that actually bind the nuclear DNA (nuclear DNA)
1 | hydrolyzed more slowly | hydrolyzed more slowly | did not hydrolyze | – | CC(C)NC(=O)C1CCCCC1C(=O)O (stereo not shown) [amide of the primary amine, 2-[(isopropylamino)carbonyl]cyclohexanecarboxylic acid] | –
2 | almost instantly hydrolyzed | slightly slower | – | 50% | CCN(CC)C(=O)C1CCCCC1C(=O)O (stereo not shown) [amide of the secondary amine, 2-[(diethylamino)carbonyl]cyclohexanecarboxylic acid] | –
3 | – | – | – | – | N.N.[Cl][Pt][Cl] [cisplatin] | less than 1%

Source: US9145472B2, “Charge reversible polymers” (Wyoming Research Products Center, priority 2006, dated 2015)
